IC50 data for 19 compounds are collected here from patent publication US20260297065A1, “AROMATIC SUBSTITUENT-CONTAINING (HETERO) ARYL-IMIDAZOLE COMPOUND, AND PREPARATION METHOD THEREFOR AND USE THEREOF” (OPEN SOURCE THERAPEUTICS, priority 2022, published 2026).

The target in test [1] is T1, soluble epoxide hydrolase (sEH) (Homo sapiens, UniProt P34913).
T1 sequence (P34913 1-555): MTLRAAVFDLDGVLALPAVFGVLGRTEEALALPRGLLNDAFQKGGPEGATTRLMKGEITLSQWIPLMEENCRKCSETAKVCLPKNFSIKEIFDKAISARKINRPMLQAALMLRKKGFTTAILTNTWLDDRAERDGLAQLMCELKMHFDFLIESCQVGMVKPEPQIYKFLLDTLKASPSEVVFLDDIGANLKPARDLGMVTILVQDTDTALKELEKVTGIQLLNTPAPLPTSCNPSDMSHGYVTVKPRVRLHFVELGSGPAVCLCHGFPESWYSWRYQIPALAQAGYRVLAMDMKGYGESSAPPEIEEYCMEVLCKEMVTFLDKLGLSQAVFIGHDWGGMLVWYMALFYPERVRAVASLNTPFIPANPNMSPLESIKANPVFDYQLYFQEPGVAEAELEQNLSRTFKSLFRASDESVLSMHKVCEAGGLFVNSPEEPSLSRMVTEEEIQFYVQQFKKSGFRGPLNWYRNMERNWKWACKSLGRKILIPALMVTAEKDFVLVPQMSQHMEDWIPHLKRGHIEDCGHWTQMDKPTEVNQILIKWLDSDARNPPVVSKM
The test can be described thus: PHOME assay activity test, sEH enzyme inhibition (fluorescence). The class given is biochemical. To be noted: PHOME 5 μM, pH 7.0; 10 min pre-incubation; test compound concentration range 20 nM-0.082 nM. As to the method: This example relates to the relationship between the structure and activity of (hetero)aryl imidazole compounds containing an aromatic substituent. Specifically, the biochemical activity of the (hetero)aryl imidazole compounds containing an aromatic substituent described herein as sEH enzyme inhibitors was evaluated by PHOME assay activity test experiment. The synthesis of the substrates and the test methods required for this test were all based on known literature reports (Analytical Biochemistry 2005, 343, 66-75).
The sEH enzyme activity inhibition experiment was performed in a low binding 96-well plate. The reaction system was 100 μL 25 mM Bis-Tris, pH 7.0, 0.1 mg/mL BSA buffer. The experimental steps of PHOME assay activity test were as follows.
First, a sEH enzyme solution with a final concentration of […] was mixed with compounds of different concentrations (test compound concentration range 20 nM-0.082 nM), and then pre-incubated on a shaker at room temperature for 10 min. The reaction was triggered by adding Phome fluorescent substrate at a final concentration of 5 μM and immediately placed in a Perkin Elmer microplate reader for dynamic monitoring for 1 hour at an excitation wavelength of 330 nm and an emission wavelength of 465 nm, with fluorescence readings at intervals of 1 minute. Graphpad Prism 9.0 software was used to calculate the slope of the fluorescence value increase in each well within 20 minutes, and the slope was used to calibrate the enzyme activity to calculate the inhibition rate of the compound on sEH enzyme activity under different concentration conditions. Finally, Graphpad Prism 9 was used to plot and calculate IC50 values.
The inhibitory activity IC50 values of some compounds against soluble epoxide hydrolase obtained by PHOME assay activity evaluation experiment are shown in Table 4.

In test [2] the target is T1, soluble epoxide hydrolase (sEH). Nature of the test: in vitro biochemical activity test, sEH enzyme inhibition with EET substrate (LC-MS). To be noted: 90 min pre-incubation at room temperature, 60 min reaction. As to the method: This example relates to the relationship between the structure and activity of (hetero)aryl imidazole compounds containing an aromatic substituent. Specifically, the biochemical activity of the (hetero)aryl imidazole compounds containing an aromatic substituent described in Example 1 as sEH enzyme inhibitors was evaluated by in vitro activity test experiments.
The experimental procedures for evaluating in vitro biochemical activity were described below.
The substrate used in the evaluation experiment was epoxyeicosatrienoic acid (EET). The solutions used in the evaluation experiments were Bis/Tris HCl 25 mM pH 7.0, Bis/Tris HCl 25 mM pH 7.0 containing 0.1 mg/mL BSA was used as buffer A, and Bis/Tris HCl 25 mM pH 7.0 containing 36.3 mM ZnSO4 was used as buffer B.
The specific steps of the evaluation experiment were as follows. 79 μL of buffer A was added to each well in a black 96-well plate and then 1 μL solution of the aromatic substituent-containing (hetero)aryl imidazole compound was added. Then, 10 μL sEH (1 μM) buffer A solution was added to the wells. After pre-incubation at room temperature for 90 min, 10 μL EET (10 μM) buffer A solution was added to trigger the reaction. After the mixture was allowed to react […] for 60 min, 15 μL buffer B and 180 μL acetonitrile were added to quench the reaction, followed by high-speed centrifugation and filtration for later use.
LC-MS was used to detect the concentration of EET in the samples. The final IC50 was calculated based on three independent experiments using Graphpad Prism software.

One may read the IC50 as the concentration that inhibits the measured activity by half. In test [1], `Nc1ncc(-c2cc3[nH]c(-c4ccc(OC(F)(F)F)c(F)c4)nc3c(F)c2F)c(C(F)F)n1` [Compound 90, 5-difluoro-1H-benzo[d]5-(2-(4-(trifluoromethoxy)-3-fluoro-phenyl)-4,5-difluoro-1H-benzo [d]imidazol-6-yl)-4-(difluoro-methyl)pyrimidine-2-amine] showed an IC50 of 0.48 nM. This lies in the sub-nanomolar range.
Same read-out and setting: to `Cc1nc(N2CC(O)C2)ncc1-c1cc2[nH]c(-c3ccc(S(=O)(=O)N(C)C)c(F)c3)nc2c(F)c1F` [Compound 104, 4-(6-(4-methyl-2-(3-hydroxy-azetidin-1-yl)pyrimid-5-yl)-4,5-difluoro-1H-benzo[d]imidazol-2-yl)-2-fluoro-N,N-dimethylbenzenesulfonamide] belongs over 20 nM.
The same measure, in the same setting: to `N#Cc1nc(N)ncc1-c1cc2[nH]c(-c3ccc(C(F)(F)F)cc3)nc2c(F)c1F` [Compound 95, 2-amino-5-(2-(4-(trifluoro-methyl)phenyl)-4,5-difluoro-1H-benzo[d]imidazol-6-yl)-pyrimidine-4-carbonitrile] belongs under 0.082 nM; to `CC(=O)N1CCN(Cc2ncc(-c3cc4[nH]c(-c5ccc(C(F)(F)F)cc5)nc4c(F)c3F)c(C)n2)CC1` [Compound 98, 1-(4-((4-methyl-5-(2-(4-(trifluoromethyl)phenyl)-4,5-difluoro-1H-benzo[d]imid-azol-6-yl)pyrimidine-2-yl)-methyl)piperazin-1-yl)ethan-1-one], 0.11 nM.
Regarding `Cc1nc(N2CC(C(=O)O)C2)ncc1-c1cc2[nH]c(-c3ccc(C(F)(F)F)cc3)nc2c(F)c1F` [Compound 96, 1-(4-methyl-5-(2-(4-(trifluoro-methyl)phenyl)-4,5-difluoro-1H-benzo[d]imidazol-6-yl)-pyrimidine-2-yl)azetidine-3-carboxylic acid], it took 0.14 nM to reach half-maximal inhibition in test [1] (IC50).
On the same count and under the same terms, to `Nc1ncc(-c2cc3[nH]c(-c4ccc(C(F)(F)F)cc4)nc3c(F)c2F)c(C(=O)O)n1` [Compound 99, 2-amino-5-(2-(4-(trifluoro-methyl)phenyl)-4,5-difluoro-1H-benzo[d]imidazol-6-yl)-pyrimidine-4-carboxylic acid] belongs 41.6 nM.
Still for that read-out and setting: to `Cc1nc(N)ncc1-c1cc2[nH]c(-c3ccc(C(F)(F)F)cn3)nc2c(F)c1F` [Compound 101, 4-methyl-5-(2-(5-(trifluoro-methyl)pyrid-2-yl)-4,5-difluoro-1H-benzo[d]imid-azol-6-yl)pyrimidine-2-amine] belongs 0.35 nM.
For the compound `Nc1ncc(-c2cc3[nH]c(-c4cccc(C(F)(F)F)c4)nc3c(F)c2F)c(C(F)F)n1` [Compound 80, 5-(2-(3-(trifluoromethyl)phen-yl)-4,5-difluoro-1H-benzo[d]imidazol-6-yl)-4-(difluoro-methyl)pyrimidine-2-amine], the IC50 was determined as 0.65 nM in test [1] and 0.45 nM in test [2].
Regarding `Nc1ncc(-c2cc3[nH]c(-c4ccc(F)c(OC(F)(F)F)c4)nc3c(F)c2F)c(C(F)F)n1` [Compound 94, 5-(2-(3-(trifluoromethoxy)-4-fluorophenyl)-4,5-difluoro-1H-benzo[d]imidazol-6-yl)-4-(difluoromethyl)pyrimidine-2-amine], in test [1], the midpoint of inhibition, the IC50, lay at 2.54 nM.
In test [1], `Cc1nc(N2CC(O)C2)ncc1-c1cc2[nH]c(-c3ccc(C(F)(F)F)cc3)nc2c(F)c1F` [Compound 93, 1-(4-methyl-5-(2-(4-(trifluoro-methyl)phenyl)-4,5-difluoro-1H-benzo[d]imidazol-6-yl)-pyrimidine-2-yl)azetidin-3-ol] gave an IC50 of under 0.082 nM.
In test [1], `COCCNc1ncc(-c2cc3[nH]c(-c4ccc(C(F)(F)F)cc4)nc3c(F)c2F)c(C(F)F)n1` [Compound 88, 5-(2-(4-(trifluoromethyl)phen-yl)-4,5-difluoro-1H-benzo[d]imidazol-6-yl)-4-(difluoro-methyl)-N-(2-methoxyethyl)-pyrimidine-2-amine] returned an IC50 of 0.65 nM. This lies in the sub-nanomolar range.
The same measure, in the same setting: to `Cc1nc(N2CC(C(=O)O)C2)ncc1-c1cc2[nH]c(-c3ccc(S(=O)(=O)N(C)C)c(F)c3)nc2c(F)c1F` [Compound 105, 1-(4-methyl-5-(2-(3-fluoro-4-(N,N-dimethylsulfamoyl)phen-yl)-4,5-difluoro-1H-benzo[d]imidazol-6-yl)pyrimidine-2-yl)azetidine-3-carboxylic acid] belongs over 20 nM; to `Cc1cc(N)nnc1-c1cc2[nH]c(-c3ccc(C(F)(F)F)cc3)nc2c(F)c1F` [Compound 103, 5-methyl-6-(2-(4-(trifluoro-methyl)phenyl)-4,5-difluoro-1H-benzo[d]imidazol-6-yl)-pyridazin-3-amine], 0.36 nM.
Same read-out and setting: to `Fc1c(-c2cnc(NC3COC3)nc2C(F)F)cc2[nH]c(-c3ccc(C(F)(F)F)cc3)nc2c1F` [Compound 91, 5-(2-(4-(trifluoromethyl)phen-yl)-4,5-difluoro-1H-benzo[d]imidazol-6-yl)-4-(difluoro-methyl)-N-(oxetan-3-yl)pyr-imidine-2-amine] belongs 0.61 nM.
In test [1], `Nc1ncc(-c2cc3[nH]c(-c4ccc5c(c4)OC(F)(F)O5)nc3c(F)c2F)c(C(F)F)n1` [Compound 89, 5-(2-(2,2-difluorobenzo[d][1,3]dioxol-5-yl)-4,5-difluoro-1H-benzo[d]imidazol-6-yl)-4-(difluoromethyl)pyrimidine-2-amine] returned an IC50 of 0.35 nM. Compared with the last compound, the IC50 is about 1.7-fold lower.
In turn, `Cc1nc(CN2CCOCC2)ncc1-c1cc2[nH]c(-c3ccc(C(F)(F)F)cc3)nc2c(F)c1F` [Compound 97, 4-((4-methyl-5-(2-(4-(trifluoro-methyl)phenyl)-4,5-difluoro-1H-benzo[d]imidazol-6-yl)-pyrimidine-2-yl)methyl)mor-pholine] had an IC50 in test [1] of 0.092 nM.
In test [1], `Cc1nc(N)ncc1-c1cc2[nH]c(-c3ccc4oc(=O)n(C)c4c3)nc2c(F)c1F` [Compound 100, 3-methyl-5-(6-(4-methyl-2-aminopyrimid-5-yl)-4,5-difluoro-1H-benzo[d]imid-azol-2-yl)benzo[d]oxazol-2(3H)-one] showed an IC50 of 10.1 nM.
On the same count and under the same terms, to `CN(C)c1nc(N)ncc1-c1cc2[nH]c(-c3ccc(C(F)(F)F)cc3)nc2c(F)c1F` [Compound 92, 5-(2-(4-(trifluoromethyl)phen-yl)-4,5-difluoro-1H-benzo[d]imidazol-6-yl)-N4,N4-dimeth-ylpyrimidine-2,4-diamine] belongs under 0.082 nM; to `Cc1nc(N)ncc1-c1nc2[nH]c(-c3ccc(C(F)(F)F)cc3)nc2cc1F` [Compound 102, 4-methyl-5-(2-(4-(trifluoromethyl)phenyl)-6-fluoro-3H-imidazo[4,5-b]pyridin-5-yl)-pyrimidine-2-amine], 1.45 nM.
